According to article PMC11149917, “Translational and Therapeutic Evaluation of RAS-GTP Inhibition by RMC-6236 in RAS-Driven Cancers” (Cancer Discovery, 2024):

What was measured:
Format in all cases: in vivo, mouse
[1] = test system: NCI-H358 (KRAS^G12C/WT, NSCLC) xenograft; assay: Subcutaneous xenograft antitumor activity; conditions: NCI-H358 (25 mg/kg)
Description: (§1) To generate subcutaneous CDX, each mouse was inoculated at the right flank with tumor cells (2 × 10^6 − 1 × 10^7) in 100 to 200 µL of media/PBS Supplemented with Matrigel. Treatments were initiated when average tumor volume reached 130 to 200 mm^3 for tumor growth evaluation and 350 to 650 mm^3 for single-dose pharmacokinetic/pharmacodynamic (PK/PD). Tumor diameter was measured in two dimensions using a digital caliper, and the tumor volume in mm^3 was calculated using the formula: Volume = ((width)^2 × length)/2. Mice in the study were weighed and tumors were measured twice weekly.
(§2) Tumor-bearing animals were randomized and assigned into groups (n = 1–10/group). The vehicle at 10 mL/kg or RMC-6236 at indicated doses was administered via oral gavage daily, and animals were treated for 28 days, or up to 90 days if PFS was being assessed. […] For single-dose PKPD study, mice were randomized and assigned into groups (n = 3/dose/time point). A single dose of RMC-6236 was administered orally at either 3, 10, or 25 mg/kg. Blood and tissues, including the tumor, brain, colon, ear skin, and muscle, were harvested at indicated time points. Whole blood was collected in K2EDTA Microtainer tubes, incubated for 5 minutes, and snap-frozen in liquid nitrogen. The tissue was either fixed in 10% formalin or snap-frozen in liquid nitrogen for further analysis.
(§3) In tumor volume plots, the average tumor volume of each group was plotted over the course after implantation (except for PDX models, where the x-axis started on the first day of treatment). Control and RMC-6236 groups were compared by two-way repeated-measures ANOVA on the last measurement day of the control group. Percentage change in body weight for each animal on a given day was determined as [(body weight on test article administration end date/body weight on test article administration start date) −1] × 100. The percentage mean tumor volume change from baseline was graphed in the waterfall plots. The mRECIST score was determined based on % mean tumor volume change, mCR is more than 80% regression, mPR is between 30% and 80% regression, mSD is between 30% growth and 30% regression, mPD is more than 30% growth. Progression is defined as tumor volume doubling from baseline and represented with Kaplan–Meier plots. Log-rank test was used to compare vehicle control with treatment groups. Cox Proportional Hazards models were used to estimate hazard ratios between vehicle control and treatment groups. Tumor relapse was defined here as models that were considered mPR or mCR at the response calling date and then rebounded from mean tumor volume regressions to either stable disease or progression when dosed long-term (more than 60 days).

[2] = test system: NCI-H441 (KRAS^G12V/WT, NSCLC) xenograft; assay: Subcutaneous xenograft antitumor activity; conditions: for Tumor Volume: NCI-H441 Tumor Volume Data, dose every 24 h
Description: as §1, §2, §3

[3] = test system: HPAC (KRAS^G12D/WT, PDAC) xenograft; assay: Subcutaneous xenograft antitumor activity; conditions: HPAC (25 mg/kg)
Description: as §1, §2, §3

[4] = test system: KP-4 (KRAS^G12D/WT, PDAC) xenograft; assay: Subcutaneous xenograft antitumor activity; conditions: KP-4 (25 mg/kg)
Description: as §1, §2, §3

[5] = test system: NCI-H1373-Luc intracranial xenograft; assay: Intracranial tumor model (bioluminescence); conditions: 25 mg/kg daily oral, 28 days
Source text: (§4) LU99 cells (JCRB0080) were stably modified with lentivirus-based pHBLV-CMV-MCS-EF1-fLuc-T2A-puro vector to generate luciferase-expressing LU99-Luc cells. NCI-H1373 cells (ATCC CRL-5866) were stably modified with lentivirus-based pHBLV-CMV-MCS-EF1-fluc-T2A-PURO vector to generate luciferase-expressing NCI-H1373-Luc cells. The eCT26 Kras^G12C^/G12CAbcb1^−^/^− (clone I20) and eCT26 Kras^G12D^/G12DAbcb1^−^/^− (clone I12) cell lines were engineered from the murine CT26 homozygous Kras^G12D tumor cell line (ATCC CRL-2638). All Kras^G12D alleles were replaced with Kras^G12C using CRISPR technology at Synthego. Additionally, the P-glycoprotein drug transporter, Abcb1a and Abcb1b, were knocked out using CRISPR guide sequences […] and […], respectively. The homozygous G12C mutation and the Abcb1 knockout were confirmed by Sanger sequencing in the clone selected and were used for in vivo experiments.
(§5) NCI-H1373-Luc cells (3 × 10^5) were prepared in 3 µL sterile PBS with 20% Matrigel. Each mouse was anesthetized by intraperitoneal (ip) injection of sterile avertin (250 mg/kg) and positioned on the stereotaxic unit. Cells were intracranially injected over 2 minutes at the site 2 mm lateral (right), 0.5 mm anterior, and 3 mm ventral with respect to the bregma. […] The bioluminescence and animal weights were measured and recorded once and twice per week, respectively. […]

[6] = test system: LU99-Luc (KRAS^G12C/WT, NSCLC) intracranial xenograft; assay: Intracranial tumor model (bioluminescence); conditions: 25 mg/kg daily oral, 21 days
Source text: as §4, §5

With CCn1c(-c2cc(N3CCN(C)CC3)cnc2[C@H](C)OC)c2c3cc(ccc31)-c1csc(n1)C[C@H](NC(=O)[C@H]1C[C@@H]1C)C(=O)N1CCC[C@H](N1)C(=O)OCC(C)(C)C2 [RMC-6236] the “Anti-Tumor Activity (% regression)” value [1] was 92.97%, the “Anti-Tumor Activity (% regression)” value ([2]; NCI-H441 (25 mg/kg)) was 88.0% and the mean tumor regression ([2]; NCI-H441, 10 mg/kg daily, 4 weeks) was 29%. For the same compound, the “Tumor Volume” value ([2]; 1mg/kg, 0 h (baseline)) was 155.297 mm^3, the “Tumor Volume” value ([2]; 1mg/kg, 72 h) was 211.748 mm^3 and the “Tumor Volume” value ([2]; 1mg/kg, 240 h) was 488.795 mm^3. For the same compound, the “Tumor Volume” value ([2]; 1mg/kg, 336 h) was 652.416 mm^3, the “Tumor Volume” value ([2]; 1mg/kg, 408 h) was 795.041 mm^3 and the “Tumor Volume” value ([2]; 1mg/kg, 504 h) was 1190.95 mm^3. The “Tumor Volume” value ([2]; 1mg/kg, 576 h) was 1534.52 mm^3, the “Tumor Volume” value ([2]; 1mg/kg, […]) was 331.176 mm^3 and the “Tumor Volume” value ([2]; 5mg/kg, 0 h (baseline)) was 155.278 mm^3. For the same compound, the “Tumor Volume” value ([2]; 5mg/kg, 72 h) was 132.554 mm^3, the “Tumor Volume” value ([2]; 5mg/kg, 240 h) was 165.633 mm^3 and the “Tumor Volume” value ([2]; 5mg/kg, 336 h) was 208.828 mm^3. For the same compound, the “Tumor Volume” value ([2]; 5mg/kg, 408 h) was 274.14 mm^3, the “Tumor Volume” value ([2]; 5mg/kg, 504 h) was 284.303 mm^3 and the “Tumor Volume” value ([2]; 5mg/kg, 576 h) was 324.789 mm^3. For the same compound, the “Tumor Volume” value ([2]; 5mg/kg, 672 h) was 374.96 mm^3, the “Tumor Volume” value ([2]; 5mg/kg, […]) was 115.114 mm^3 and the “Tumor Volume” value ([2]; 10mg/kg, 0 h (baseline)) was 155.355 mm^3. The “Tumor Volume” value ([2]; 10mg/kg, 72 h) was 120.95 mm^3, the “Tumor Volume” value ([2]; 10mg/kg, 240 h) was 80.5583 mm^3 and the “Tumor Volume” value ([2]; 10mg/kg, 336 h) was 79.7939 mm^3. For the same compound, the “Tumor Volume” value ([2]; 10mg/kg, 408 h) was 102.218 mm^3, the “Tumor Volume” value ([2]; 10mg/kg, 504 h) was 74.6022 mm^3 and the “Tumor Volume” value ([2]; 10mg/kg, 576 h) was 87.8761 mm^3. For the same compound, the “Tumor Volume” value ([2]; 10mg/kg, 672 h) was 105.875 mm^3, the “Tumor Volume” value ([2]; 10mg/kg, […]) was 91.6508 mm^3 and the “Tumor Volume” value ([2]; 25mg/kg, 0 h (baseline)) was 155.304 mm^3. For the same compound, the “Tumor Volume” value ([2]; 25mg/kg, 72 h) was 113.104 mm^3, the “Tumor Volume” value ([2]; 25mg/kg, 240 h) was 58.639 mm^3 and the “Tumor Volume” value ([2]; 25mg/kg, 336 h) was 46.9253 mm^3. For the same compound, the “Tumor Volume” value ([2]; 25mg/kg, 408 h) was 36.776 mm^3, the “Tumor Volume” value ([2]; 25mg/kg, 504 h) was 29.9204 mm^3 and the “Tumor Volume” value ([2]; 25mg/kg, 576 h) was 27.7701 mm^3. For the same compound, the “Tumor Volume” value ([2]; 25mg/kg, 672 h) was 19.397 mm^3, the “Tumor Volume” value ([2]; 25mg/kg, […]) was 78.2002 mm^3 and the “Anti-Tumor Activity (% regression)” value [3] was 93%. The “Anti-Tumor Activity (% regression)” value ([4]; d14) was 48.2%, the “Anti-Tumor Activity, %TGI” value ([4]; d28) was 89.2 % TGI and the “tumor response by bioluminescent signal” value [5] was “tumor regressions”. For the same compound, the “tumor response by bioluminescent signal” value [6] was “tumor regressions”.
